{"source": "ChEMBL document CHEMBL1201862", "about": "“PubChem BioAssay data set” (2004)", "key": {"[1]": {"assay": "blockers of HIV-1 envelope-mediated cell-cell fusion – cherry-pick, dose response (AID 652057)", "format": "functional, cell-based"}, "[2]": {"assay": "HIV-1 AD8 envelope cell-cell fusion blockers – cherry-pick, dose response (AID 652062);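 also: potency is for inhibitors of fusion seen as a drop in luminescence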", "format": "functional, cell-based"}, "[3]": {"assay": "luciferase reporter signal reduction – luminescence, H4-C neuroglioblastoma cells, dose response (AID 2458);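 also: H4 neuroglioblastoma cells stably carrying a luciferase reporter gene fusion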", "format": "functional, cell-based"}, "[4]": {"assay": "blockers of HIV-1 ZM109 envelope-driven cell-cell fusion – HeLa effector, CEM target cells, luciferase, cherry-pick, dose response (AID 652058)", "format": "functional, cell-based"}, "[5]": {"assay": "off-target signal loss in HeLa-CEM21 co-culture – HeLa F-luc CTL cells, cherry-picked, counter-screen for HIV-1 Env fusion inhibitor project, dose response (AID 652040);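 also: potency for signal decrease marking cytotoxic or nonspecific inhibition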", "format": "functional, cell-based"}, "[6]": {"assay": "alpha-synuclein stem-loop luciferase translation blockers – H4 neuroglioma cells, luminescence, confirmation (AID 1988)", "format": "functional, cell-based"}, "[7]": {"assay": "Luminescence-based counterscreen assay for KLF5 inhibitors: dose response cell-based high throughput screening assay to identify cytotoxic compounds using the IEC-6 intestinal epithelial cell line. [Related pubchem assays: 1700 (Primary screen.), 1834 (Confirmation screen.), 1858 (Summary AID.), 1905 (Counterscreen.)]", "format": "functional"}, "[8]": {"assay": "PAX8-dependent cell viability loss – plate reader, dry powder, dose response (AID 743049)", "format": "functional, cell-based"}, "[9]": {"assay": "blockade of melanocortin 4 receptor signaling – cell-based, plate reader, cherry pick, counter-screen for LGR2 antagonist project, dose response (AID 743444);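 also: transfected HEK 293 cells stimulated with alpha-MSH peptide; potency of inhibitors of the alpha-MSH evoked signal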", "format": "functional"}, "[10]": {"assay": "PAX5 cellular inhibition readout – cell-based, plate reader, dry powder samples, selectivity assay for PAX8 inhibitor project, dose response (AID 743047);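 also: HEK293 cells carrying a Pax5 driven CD19 promoter luciferase reporter; potency of inhibitors that lower reporter luminescence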", "format": "functional"}, "[11]": {"target": "T1, Microphthalmia-associated transcription factor (Homo sapiens, UniProt O75030)", "T1 sequence (O75030 whole entry)": "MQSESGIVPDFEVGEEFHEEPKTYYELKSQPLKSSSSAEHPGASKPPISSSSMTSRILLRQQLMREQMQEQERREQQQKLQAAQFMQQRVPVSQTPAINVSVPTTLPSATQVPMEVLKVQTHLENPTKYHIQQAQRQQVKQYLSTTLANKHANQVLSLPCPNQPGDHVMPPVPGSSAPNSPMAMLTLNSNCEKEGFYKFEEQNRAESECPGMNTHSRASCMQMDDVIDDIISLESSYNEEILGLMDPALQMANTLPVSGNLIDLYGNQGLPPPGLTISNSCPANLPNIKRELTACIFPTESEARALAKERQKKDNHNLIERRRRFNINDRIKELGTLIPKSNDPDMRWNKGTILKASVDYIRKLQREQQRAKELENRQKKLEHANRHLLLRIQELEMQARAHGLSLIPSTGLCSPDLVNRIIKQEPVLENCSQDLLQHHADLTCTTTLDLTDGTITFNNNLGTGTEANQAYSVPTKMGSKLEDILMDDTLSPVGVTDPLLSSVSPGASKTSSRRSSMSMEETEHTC", "assay": "reducers of TRPM1 reporter luminescence, concentration series – cell-based, SK-MEL-5, cherry-picked, set 3, MITF inhibitor project, dose response (AID 493073)", "format": "functional"}, "Paired box protein Pax-8": {"target": "Paired box protein Pax-8 (Homo sapiens, UniProt Q06710)", "sequence (Q06710 whole entry)": "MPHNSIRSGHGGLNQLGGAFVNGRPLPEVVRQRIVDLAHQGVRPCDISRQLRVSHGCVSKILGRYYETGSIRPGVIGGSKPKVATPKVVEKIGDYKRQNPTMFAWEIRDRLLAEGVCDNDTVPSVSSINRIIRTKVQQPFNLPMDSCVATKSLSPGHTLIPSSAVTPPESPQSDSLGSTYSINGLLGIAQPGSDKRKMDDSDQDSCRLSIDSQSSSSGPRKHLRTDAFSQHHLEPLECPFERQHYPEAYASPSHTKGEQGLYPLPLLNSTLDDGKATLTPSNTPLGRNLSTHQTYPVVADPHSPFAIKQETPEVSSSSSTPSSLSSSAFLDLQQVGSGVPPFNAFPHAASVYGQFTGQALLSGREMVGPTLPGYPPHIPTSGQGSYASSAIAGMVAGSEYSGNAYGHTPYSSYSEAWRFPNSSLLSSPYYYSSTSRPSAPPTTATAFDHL", "assay": "PAX8 transcriptional activity inhibition in RMG-I – RMG-I cells, luciferase, cherry-pick, dose response (AID 687027);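 also: luciferase reporter driven by Pax8 target thyroperoxidase promoter measured by SteadyGlo luminescence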", "format": "functional, cell-based"}, "[12]": {"assay": "alpha-synuclein stem-loop translation blockers – luminescence, H4 neuroglioblastoma cells, dose confirmation, confirmation (AID 2454);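 also: potency for inhibition of the luciferase signal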", "format": "functional, cell-based"}, "[13]": {"assay": "blockers of bursicon-stimulated LGR2 cAMP reporter – cell-based, HEK293, CRE-luciferase reporter, cherry pick, set 2, dose response (AID 743343);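 also: transfected cells were stimulated with diluted bursicon conditioned medium after compound addition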", "format": "functional"}, "[14]": {"assay": "inhibitors acting on PAX2 in cells – cell-based, plate reader, dry powder samples, selectivity assay for PAX8 inhibitor project, dose response (AID 743048);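 also: HEK293 cells carrying a WT1 promoter luciferase reporter driven by expressed Pax2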", "format": "functional"}, "[15]": {"assay": "COV362 cell viability loss – plate reader, dry powder, SA12, cytotoxicity control for PAX8 inhibitor project, dose response (AID 743144)", "format": "functional, cell-based"}, "cells": {"assay": "cells", "format": "functional, cell-based"}, "HeLa": {"tested_on": "HeLa", "assay": "Cytotoxicity counterscreen assay for transcriptional activators of heat shock protein 70 (Hsp70). [Related pubchem assays: 1203, 1252 ]", "format": "functional", "conditions": "Homo sapiens"}, "[16]": {"target": "Polyadenylate-binding protein 1 (Homo sapiens, UniProt P11940)", "sequence (P11940 whole entry)": "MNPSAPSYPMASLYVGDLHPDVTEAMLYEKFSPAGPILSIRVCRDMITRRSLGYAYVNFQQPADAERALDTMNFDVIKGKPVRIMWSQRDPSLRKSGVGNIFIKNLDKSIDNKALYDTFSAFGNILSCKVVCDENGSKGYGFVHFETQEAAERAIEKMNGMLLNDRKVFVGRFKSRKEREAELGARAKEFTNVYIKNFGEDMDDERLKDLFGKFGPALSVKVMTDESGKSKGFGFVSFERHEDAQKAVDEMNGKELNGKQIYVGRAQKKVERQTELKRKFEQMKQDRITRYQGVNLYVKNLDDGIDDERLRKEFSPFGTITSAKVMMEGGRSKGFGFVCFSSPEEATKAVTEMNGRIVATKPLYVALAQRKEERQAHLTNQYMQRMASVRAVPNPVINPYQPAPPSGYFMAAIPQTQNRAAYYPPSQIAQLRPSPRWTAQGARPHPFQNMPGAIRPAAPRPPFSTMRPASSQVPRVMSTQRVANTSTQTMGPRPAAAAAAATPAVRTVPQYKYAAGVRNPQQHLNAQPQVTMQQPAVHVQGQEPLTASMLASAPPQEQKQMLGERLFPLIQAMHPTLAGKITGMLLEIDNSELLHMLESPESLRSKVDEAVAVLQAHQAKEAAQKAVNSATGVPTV", "assay": "blockers of PABP interaction with poly(A) – biochemical, fluorescence polarization, […] (AID 2014)"}, "[17]": {"target": "DNA dC->dU-editing enzyme APOBEC-3G (Homo sapiens, UniProt Q9HC16)", "sequence (Q9HC16 whole entry)": "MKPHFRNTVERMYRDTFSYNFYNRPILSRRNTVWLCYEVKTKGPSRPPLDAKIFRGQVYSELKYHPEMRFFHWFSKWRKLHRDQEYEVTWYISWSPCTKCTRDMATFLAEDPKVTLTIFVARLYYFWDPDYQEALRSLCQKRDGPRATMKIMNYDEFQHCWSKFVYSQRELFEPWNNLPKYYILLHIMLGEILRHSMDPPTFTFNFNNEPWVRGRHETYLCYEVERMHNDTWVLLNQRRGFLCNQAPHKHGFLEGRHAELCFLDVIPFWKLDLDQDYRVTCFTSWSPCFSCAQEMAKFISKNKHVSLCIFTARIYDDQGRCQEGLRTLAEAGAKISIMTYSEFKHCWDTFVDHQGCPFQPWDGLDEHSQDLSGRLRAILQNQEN", "format": "functional"}, "[18]": {"target": "DNA dC->dU-editing enzyme APOBEC-3A (Homo sapiens, UniProt P31941)", "sequence (P31941 whole entry)": "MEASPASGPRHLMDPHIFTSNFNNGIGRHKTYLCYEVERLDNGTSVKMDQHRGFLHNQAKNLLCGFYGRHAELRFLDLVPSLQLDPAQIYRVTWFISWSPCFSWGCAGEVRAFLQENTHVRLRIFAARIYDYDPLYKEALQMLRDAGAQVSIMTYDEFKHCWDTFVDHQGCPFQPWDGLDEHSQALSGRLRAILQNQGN", "assay": "Dose Response confirmation of small molecule APOBEC3A DNA Deaminase Inhibitors via a fluorescence-based single-stranded DNA deaminase assay. [Related pubchem assays (depositor defined):AID493011, AID493024]", "format": "functional"}, "[19]": {"target": "Eukaryotic translation initiation factor 4H (Homo sapiens, UniProt Q15056)", "assay": "eIF4H binding inhibition – biochemical, uHTS, fluorescence polarization, translation initiation inhibitor project, primary screen (AID 2012)"}, "Estrogen receptor [20]": {"target": "T2, Estrogen receptor (Homo sapiens, UniProt P03372)", "T2 sequence (P03372 whole entry)": "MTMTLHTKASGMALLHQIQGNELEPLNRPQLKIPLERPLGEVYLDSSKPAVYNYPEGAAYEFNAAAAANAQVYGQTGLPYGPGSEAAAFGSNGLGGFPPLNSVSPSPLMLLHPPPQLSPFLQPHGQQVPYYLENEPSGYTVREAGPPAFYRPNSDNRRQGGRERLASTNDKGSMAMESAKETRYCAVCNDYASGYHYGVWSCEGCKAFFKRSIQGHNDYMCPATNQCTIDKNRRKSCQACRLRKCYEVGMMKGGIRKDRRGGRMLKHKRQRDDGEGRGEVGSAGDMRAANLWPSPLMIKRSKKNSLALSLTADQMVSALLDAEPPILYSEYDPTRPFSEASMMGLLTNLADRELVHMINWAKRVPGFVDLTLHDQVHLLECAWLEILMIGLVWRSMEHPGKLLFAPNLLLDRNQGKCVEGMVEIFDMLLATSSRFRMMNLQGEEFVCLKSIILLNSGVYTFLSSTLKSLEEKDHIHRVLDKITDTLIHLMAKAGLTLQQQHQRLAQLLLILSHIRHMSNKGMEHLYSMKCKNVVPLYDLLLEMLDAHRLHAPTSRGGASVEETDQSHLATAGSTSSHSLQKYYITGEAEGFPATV", "assay": "blockers of SRC-3 recruitment to ERα – biochemical, ELISA, streptavidin-HRP readout, orthogonal assay, confirmation (AID 1079)"}, "Estrogen receptor [21]": {"target": "T2, Estrogen receptor", "assay": "ERα coactivator recruitment enhancers – biochemical, TR-FRET, ERα LBD, dose response (AID 737)"}, "Melanocortin receptor 4": {"target": "Melanocortin receptor 4 (Homo sapiens, UniProt P32245)", "sequence (P32245 whole entry)": "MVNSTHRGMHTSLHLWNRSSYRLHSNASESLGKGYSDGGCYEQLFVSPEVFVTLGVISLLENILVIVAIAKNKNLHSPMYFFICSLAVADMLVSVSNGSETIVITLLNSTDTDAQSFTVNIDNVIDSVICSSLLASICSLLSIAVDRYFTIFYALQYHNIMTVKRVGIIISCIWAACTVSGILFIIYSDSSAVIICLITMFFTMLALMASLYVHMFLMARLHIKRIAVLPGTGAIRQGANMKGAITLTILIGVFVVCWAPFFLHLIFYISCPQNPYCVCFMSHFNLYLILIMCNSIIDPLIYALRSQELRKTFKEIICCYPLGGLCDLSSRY", "format": "functional, cell-based"}, "[22]": {"assay": "antiviral protection against BTV-induced cell death – arbovirus, BSR cells, confirmation (AID 1250);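 also: protection from viral cytopathic effect measured as cell viability by ATP luminescence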", "format": "functional"}, "[23]": {"assay": "toxicity toward HepG2 liver cells – cell-based, plate reader, cherry-pick, antagonist series, cytotoxicity control, dose response (AID 743416)", "format": "functional"}, "[24]": {"assay": "viability loss in HEK293 cells – cell-based, plate reader, cherry-picked samples, cytotoxicity control, dose response (AID 743446)", "format": "functional"}, "[25]": {"target": "T3, Eukaryotic translation initiation factor 2-alpha kinase 3 (Homo sapiens, UniProt Q9NZJ5)", "T3 sequence (Q9NZJ5 whole entry)": "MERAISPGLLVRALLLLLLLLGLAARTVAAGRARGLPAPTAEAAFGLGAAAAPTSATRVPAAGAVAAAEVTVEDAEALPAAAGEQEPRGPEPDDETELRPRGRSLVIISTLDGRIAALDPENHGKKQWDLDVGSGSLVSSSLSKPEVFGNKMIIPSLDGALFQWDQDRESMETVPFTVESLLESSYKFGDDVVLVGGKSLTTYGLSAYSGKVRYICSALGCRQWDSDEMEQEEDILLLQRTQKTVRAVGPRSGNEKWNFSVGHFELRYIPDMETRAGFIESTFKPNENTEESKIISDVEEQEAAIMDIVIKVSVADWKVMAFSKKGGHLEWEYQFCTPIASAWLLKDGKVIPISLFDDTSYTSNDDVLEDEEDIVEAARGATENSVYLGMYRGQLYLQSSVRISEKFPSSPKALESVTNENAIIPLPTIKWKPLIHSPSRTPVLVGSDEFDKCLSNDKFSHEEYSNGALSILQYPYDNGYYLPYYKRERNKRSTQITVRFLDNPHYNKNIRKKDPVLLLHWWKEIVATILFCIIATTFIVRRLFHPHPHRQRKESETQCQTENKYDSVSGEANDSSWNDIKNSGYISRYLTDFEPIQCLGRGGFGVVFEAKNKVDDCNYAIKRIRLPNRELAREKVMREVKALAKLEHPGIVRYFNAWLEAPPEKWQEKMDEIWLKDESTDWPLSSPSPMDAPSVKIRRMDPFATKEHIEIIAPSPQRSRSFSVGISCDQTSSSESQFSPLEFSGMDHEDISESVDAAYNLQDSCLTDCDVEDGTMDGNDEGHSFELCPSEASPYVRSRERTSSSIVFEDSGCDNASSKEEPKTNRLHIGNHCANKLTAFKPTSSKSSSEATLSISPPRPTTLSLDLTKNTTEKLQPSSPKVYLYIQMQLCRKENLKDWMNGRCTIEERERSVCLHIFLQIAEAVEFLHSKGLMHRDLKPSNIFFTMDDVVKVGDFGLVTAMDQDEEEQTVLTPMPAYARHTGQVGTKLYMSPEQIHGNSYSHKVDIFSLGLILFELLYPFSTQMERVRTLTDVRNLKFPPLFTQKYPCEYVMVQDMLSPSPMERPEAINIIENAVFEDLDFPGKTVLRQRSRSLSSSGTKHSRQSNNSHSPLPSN", "assay": "Counterscreen assay for PERK inhibitors: Dose response cell-based high throughput screening assay to measure inhibition of PERK at 6 hours. [Related pubchem assays: 1522, 1416 ]", "format": "functional"}, "[26]": {"target": "T3, Eukaryotic translation initiation factor 2-alpha kinase 3", "assay": "Dose response cell-based high-throughput screening assay to measure PERK inhibition. [Related pubchem assays: 1416 ]", "format": "functional"}}, "note": "Active and inactive are the calls of the source.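 For CC50 in this document: cells exposed to compound for 16 hours before readout.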"}
{"smiles": "Cc1ccccc1OCC(=O)Nc1cccc(C(=O)O)c1", "values": [{"measurement": "AC50", "setting": "[1]", "result": "0.342 µM (active)"}, {"measurement": "AC50", "setting": "[2]", "result": "1.27 µM (active)"}, {"measurement": "EC50", "setting": "[3]", "result": "0.541 µM (active)"}, {"measurement": "AC50", "setting": "[4]", "result": "7.82 µM (active)"}, {"measurement": "AC50", "setting": "[5]", "result": "0.951 µM (active)"}, {"measurement": "EC50", "setting": "[6]", "result": "< 0.1 µM (active)"}, {"measurement": "IC50", "setting": "[7]", "result": "> 39.8 µM (not active)"}, {"measurement": "AC50", "setting": "[8]", "result": "> 100 µM (inactive)"}, {"measurement": "AC50", "setting": "[9]", "result": "1.05 µM (active)"}, {"measurement": "AC50", "setting": "[10]", "result": "3.76 µM (active)"}, {"measurement": "AC50", "setting": "[11]", "result": "1.05 µM (active)"}, {"measurement": "AC50", "setting": "Paired box protein Pax-8", "result": "2.3 µM (active)"}, {"measurement": "EC50", "setting": "[12]", "result": "0.393 µM (active)"}, {"measurement": "AC50", "setting": "[13]", "result": "0.669 µM (active)"}, {"measurement": "AC50", "setting": "[14]", "result": "3.61 µM (active)"}, {"measurement": "AC50", "setting": "[15]", "result": "> 100 µM (inactive)"}, {"measurement": "EC50", "setting": "cells", "result": "0.725 µM (active)"}]}
{"smiles": "Cc1nn(C)c(C)c1NC(=O)c1ccc(S(=O)(=O)N(C)C)cc1", "values": [{"measurement": "CC50", "setting": "HeLa", "result": "> 99 µM (not active)"}]}
{"smiles": "CC(=O)OC(C[N+]1(C)CCCCCC1)c1ccccc1", "note": "(configuration not stated)", "values": [{"measurement": "IC50", "setting": "[16]", "result": "9.62 µM (active)"}, {"measurement": "IC50", "setting": "[17]", "result": "2.4 µM (active)"}, {"measurement": "IC50", "setting": "[18]", "result": "2.79 µM (active)"}, {"measurement": "IC50", "setting": "[19]", "result": "> 100 µM (inactive)"}]}
{"smiles": "O=C(CCCn1c(=S)[nH]c2ccccc2c1=O)N1CCN(Cc2cccc3ccccc23)CC1", "values": [{"measurement": "IC50", "setting": "Estrogen receptor [20]", "result": "0.17 µM (not active)"}]}
{"smiles": "COc1cc(C(=O)Nc2nnc(-c3sccc3C)s2)cc(OC)c1OC", "values": [{"measurement": "EC50", "setting": "Estrogen receptor [21]", "result": "13.2 µM (active)"}, {"measurement": "EC50", "setting": "Melanocortin receptor 4", "result": "> 89.2 µM (inactive)"}]}
{"smiles": "COc1ccc(-c2csc(NC(=O)c3ccc(OCC(=O)N4CCOCC4)c(OC)c3)n2)cc1", "values": [{"measurement": "IC50", "setting": "[22]", "result": "27.5 µM (active)"}, {"measurement": "AC50", "setting": "[23]", "result": "> 52 µM (inactive)"}, {"measurement": "AC50", "setting": "[9]", "result": "22.4 µM (active)"}, {"measurement": "AC50", "setting": "[13]", "result": "18.4 µM (active)"}, {"measurement": "AC50", "setting": "[24]", "result": "43.1 µM (active)"}]}
{"smiles": "Oc1cnnc(N/N=C/c2cccs2)n1", "values": [{"measurement": "EC50", "setting": "[25]", "result": "> 55.7 µM (not active)"}, {"measurement": "EC50", "setting": "[26]", "result": "> 55.7 µM (not active)"}]}
